Marks after values point to notes of the source that are not given here.
Experiments:
suckling rats [1] = test: Set II: different doses of protease, organ weights, stomach pH and body weight, Example 4; type: in vivo, Rattus norvegicus; parameters: mean body weight Bwt 1/Day 14 / mean body weight Bwt2/Day 15 / mean body weight Bwt3/Day 16 / mean body weight Bwt4/Day 17: unit not given here; details: for Cecum / Distal SI / Liver / Pancreas / Proximal SI / SI length / Spleen / Stomach / Thymus: day 17; for pH: stomach contents
Method: (§1) The second study was about comparing the effect of different doses of protease (15000 USP, 7500 USP, 3750 USP and […]) on the development of the GI tract with control. In this experiment 2 litters of pups were used (n=13 and n=12). Pups were divided into five groups to fed with different doses of protease; 15000 USP (n=3), P7500 USP (n=6), P 3750 USP (n=6), P 1875 USP (n=5) and water as a control (n=5). The feeding was during 3 continuous days, once a day. 24 hours after the last feeding, on day 17, similar dissection steps and analytical procedures as mentioned for the previous experiment were followed.
All data are presented as mean±standard deviation (SD). […] Results were considered as significant when P<0.05.

rat pups = test: Set III: health and growth monitored for 3 weeks after protease, early and normal weaning, Example 5; type: in vivo; details: protease 15 000 USP
Excerpt: In the last study, the health and the growth of the pups were monitored for 3 weeks. Pups where treated at age 14 day of life with the protease 15 000 USP/rat/day for 3 days once a day (on days 14, 15, and 16). This study performed using 3 litters (n=9, n=11 and n=10) where pups were divided into 2 groups; enzyme treated and control. After last feeding rat were further divided into subgroups: early weaning started on day 17 (n=8) and normal weaning started on day 21 (n=6). All animals were monitored via weighing for one week on a daily basis and then once a week for the next 2 weeks.

suckling piglets = test: Suckling pig model II: marker molecules absorption in vivo after microbial protease, Experiment 10; details: protease treated piglets vs control
Method: All piglets were kept with sow until the weaning day. Piglets from 5-6 litters divided into 2 groups and treated with microbial protease (Sigma) (enz group) or water (cont) (n=28 per group), total 56. The dose of enzymes was 60 mg/ml with activity 1000 USP per 1 mg, the administration volume was 4 ml/kg b. wt, the frequency of administration was every second day (ones a day). Treatment via gavage feeding was started at 8 d of age and was done 3 times, (i.e. 8, 10, 12 d of life).
Separate piglets (6 enzyme treated and 6 control pigs) were fed with marker molecule solution (Bovine serum albumin (BSA) in concentration 125 mg/ml and sodium fluorescein (NaF) in concentration 2.5 mg/ml; the administration volume was 4 ml/kg b.wt) at age 14 d of life and 27 d of life (the weaning day). Blood was collected at 0, […], 1, 2, 4, 8, and 24 hours after marker-cocktail feeding.

suckling rats [2] = test: Set II: intestinal morphology of distal SI at different doses of protease, Example 4; type: in vivo, Rattus norvegicus; details: in words (FIG. 8)
Method: as §1
All samples collected for histology were fixed with Bouin's solution for 24 hours and then stored in 70% ethanol, dehydrated, embedded into the paraffin and then cut into sections with 5 μm thickness. The tissue sections were transferred onto the slides, rehydrated and stained with H&E according to the standard technique. After mounting under cover slips samples were examined using light microscopy to estimate ratio between total length of the villus and length of the adult type enterocytes using ImageJ program.

Substance: Proteinase from Aspergillus melleus [Protease]
- diarrhoea (suckling rats [1]; highest dose of protease, after first dose on day 14): signs of diarrhoea
- mean body weight Bwt 1/Day 14 (suckling rats [1]; protease 15 000USP): 28.7
- mean body weight Bwt2/Day 15 (suckling rats [1]; protease 15 000USP): 27.4*
- mean body weight Bwt3/Day 16 (suckling rats [1]; protease 15 000USP): 28.2*
- mean body weight Bwt4/Day 17 (suckling rats [1]; protease 15 000USP): 30.1*
- mean body weight Bwt 1/Day 14 (suckling rats [1]; protease 1875USP): 28.2
- mean body weight Bwt2/Day 15 (suckling rats [1]; protease 1875USP): 31.7
- mean body weight Bwt3/Day 16 (suckling rats [1]; protease 1875USP): 32.9
- mean body weight Bwt4/Day 17 (suckling rats [1]; protease 1875USP): 34.8
- Cecum (suckling rats [1]; protease 1875 USP): 2.3 ± 0.2 mg/g BW
- Distal SI (suckling rats [1]; protease 1875 USP): 13.3 ± 1.4 mg/g BW
- Liver (suckling rats [1]; protease 1875 USP): 31.7 ± 1.1 mg/g BW
- Pancreas (suckling rats [1]; protease 1875 USP): 3.0 ± 0.4 mg/g BW
- Proximal SI (suckling rats [1]; protease 1875 USP): 16.4 ± 0.8 mg/g BW
- SI length (suckling rats [1]; protease 1875 USP): 1.5 ± 0.0 cm/g BW
- Spleen (suckling rats [1]; protease 1875 USP): 3.3 ± 0.4 mg/g BW
- Stomach (suckling rats [1]; protease 1875 USP): 6.1 ± 0.3 mg/g BW
- Thymus (suckling rats [1]; protease 1875 USP): 5.6 ± 0.3 mg/g BW
- mean body weight Bwt 1/Day 14 (suckling rats [1]; protease 3750USP): 28.5
- mean body weight Bwt2/Day 15 (suckling rats [1]; protease 3750USP): 30.5
- mean body weight Bwt3/Day 16 (suckling rats [1]; protease 3750USP): 32.3
- mean body weight Bwt4/Day 17 (suckling rats [1]; protease 3750USP): 33.3
- Cecum (suckling rats [1]; protease 3750 USP): 2.8 ± 0.3 mg/g BW
- Distal SI (suckling rats [1]; protease 3750 USP): 14.7 ± 1.1 mg/g BW
- Liver (suckling rats [1]; protease 3750 USP): 32.8 ± 1.7 mg/g BW
- Pancreas (suckling rats [1]; protease 3750 USP): 3.2 ± 0.3 mg/g BW
- Proximal SI (suckling rats [1]; protease 3750 USP): 17.6 ± 1.5 mg/g BW
- SI length (suckling rats [1]; protease 3750 USP): 1.5 ± 0.1 cm/g BW
- Spleen (suckling rats [1]; protease 3750 USP): 3.3 ± 0.5 mg/g BW
- Stomach (suckling rats [1]; protease 3750 USP): 6.4 ± 0.3 mg/g BW
- Thymus (suckling rats [1]; protease 3750 USP): 5.6 ± 0.8 mg/g BW
- mean body weight Bwt 1/Day 14 (suckling rats [1]; protease 7500USP): 28.9
- mean body weight Bwt2/Day 15 (suckling rats [1]; protease 7500USP): 30.6
- mean body weight Bwt3/Day 16 (suckling rats [1]; protease 7500USP): 32.2
- mean body weight Bwt4/Day 17 (suckling rats [1]; protease 7500USP): 33.6
- Cecum (suckling rats [1]; protease 7500 USP): 3.0 ± 0.2 mg/g BW
- Distal SI (suckling rats [1]; protease 7500 USP): 15.4 ± 1.7 mg/g BW
- Liver (suckling rats [1]; protease 7500 USP): 33.0 ± 1.6 mg/g BW
- Pancreas (suckling rats [1]; protease 7500 USP): 3.4 ± 0.4 mg/g BW
- Proximal SI (suckling rats [1]; protease 7500 USP): 19.3 ± 2.0 mg/g BW
- SI length (suckling rats [1]; protease 7500 USP): 1.8 ± 0.1 cm/g BW
- Spleen (suckling rats [1]; protease 7500 USP): 3.1 ± 0.1 mg/g BW
- Stomach (suckling rats [1]; protease 7500 USP): 6.3 ± 0.4 mg/g BW
- Thymus (suckling rats [1]; protease 7500 USP): 4.8 ± 0.6 mg/g BW
- Cecum (suckling rats [1]; protease 15000 USP): 4.2 ± 0.1 mg/g BW
- Distal SI (suckling rats [1]; protease 15000 USP): 18.6 ± 1.0 mg/g BW
- Liver (suckling rats [1]; protease 15000 USP): 38.5 ± 2.4 mg/g BW
- Pancreas (suckling rats [1]; protease 15000 USP): 4.8 ± 0.2 mg/g BW
- Proximal SI (suckling rats [1]; protease 15000 USP): 28.2 ± 1.7 mg/g BW
- SI length (suckling rats [1]; protease 15000 USP): 1.8 ± 0.1 cm/g BW
- Spleen (suckling rats [1]; protease 15000 USP): 3.0 ± 0.3 mg/g BW
- Stomach (suckling rats [1]; protease 15000 USP): 6.9 ± 0.7 mg/g BW
- Thymus (suckling rats [1]; protease 15000 USP): 3.0 ± 0.2 mg/g BW
- pH (suckling rats [1]; protease 1875 USP): 4.1 ± 0.2
- pH (suckling rats [1]; protease 3750 USP): 4.1 ± 0.4
- pH (suckling rats [1]; protease 7500 USP): 3.9 ± 0.7
- pH (suckling rats [1]; protease 15000 USP): 3.4 ± 0.8
- diarrhea (rat pups; after first treatment): signs of diarrhea
- growth in comparison to control group (rat pups; in words (FIG. 9)): decrease in growth after first treatment
- effect of early weaning on treated group (rat pups; weaning day 17, in words): no disadvantage
- intestinal permeability for BSA (suckling piglets; in words (FIG. 20A)): decreased intestinal permeability
- intestinal permeability for NaF (suckling piglets; in words (FIG. 20B)): decreased intestinal permeability
- vacuolated (fetal-type) enterocytes in distal SI (suckling rats [2]; protease 1875 USP): limited to the middle and the tip of the villi
- vacuolated (fetal-type) enterocytes in distal SI (suckling rats [2]; protease 3750 USP): limited to the middle and the tip of the villi
- vacuolated (fetal-type) enterocytes in distal SI (suckling rats [2]; protease 7500 USP): limited to the middle and the tip of the villi
- vacuolated (fetal-type) enterocytes in distal SI (suckling rats [2]; protease 15000 USP): all of the vacuolated enterocytes disappeared

— US9205137B2, “Maturation of gastrointestinal tract” (ANARA AB, priority 2010, dated 2015)
